Molecules are shown by their SMILES. Bounds are passed on as bounds.

One series relates to A549 cells. Description: Cellular proliferation/cytotoxicity assay (Alamar Blue), A549 cells. Conditions: Homo sapiens, A549, 72 h, read-out: Anti-proliferative/Cytotoxic activity (A549 cells).
For `COc1ccn2c(-c3ccccc3)c(-c3ccc(CN4CCC(c5n[nH]c(-c6ccccn6)n5)CC4)cc3)nc2n1` [Example 24, 7-methoxy-3-phenyl-2-(4-{[4-(5-pyridin-2-yl-1,2,4-triazol-3-yl)piperidin-1-yl]methyl}phenyl)imidazo[1,2-a]pyrimidine], the IC50 is below 10 µM.

For `Clc1ccn2c(-c3ccccc3)c(-c3ccc(CN4CCC(c5nnc(-c6cccs6)[nH]5)CC4)cc3)nc2c1` [Example 103, 7-chloro-3-phenyl-2-[4-({4-[5-(2-thienyl)-4H-1,2,4-triazol-3-yl]piperidin-1-yl}methyl)phenyl]imidazo[1,2-a]pyridine], the IC50 is below 10 µM. Same read-out and setting: the result for `CSc1nn2c(-c3ccccc3)c(-c3ccc(CN4CCC(c5nnc(-c6ccccn6)[nH]5)CC4)cc3)nc2s1` [Example 47, 2-(methylsulfanyl)-5-phenyl-6-[4-({4-[5-(pyridin-2-yl)-4H-1,2,4-triazol-3-yl]piperidin-1-yl}methyl)phenyl]imidazo[2,1-b][1,3,4]thiadiazole] reads above 10 µM. `COc1ccc(-c2c(-c3ccc(CN4CCC(c5n[nH]c(-c6ccccn6)n5)CC4)cc3)nc3ncccn23)cc1` [Example 20, 3-(4-methoxyphenyl)-2-(4-{[4-(5-pyridin-2-yl-1,2,4-triazol-3-yl)piperidin-1-yl]methyl}phenyl)imidazo[1,2-a]pyrimidine]: the IC50 is above 10 µM.

Staying with this series, now noted: read-out: Anti-proliferative/Cytotoxic activity (A549 cells); A549 cells, 72 h, Alamar Blue (Resazurin).
With `c1ccc(-c2c(-c3ccc(CN4CCC(c5nnc(-c6ccncc6)[nH]5)CC4)cc3)nc3scnn23)cc1` [Example 60, ′5-phenyl-6-(4-{[4-(5-pyridin-4-yl-4H-1,2,4-triazol-3-yl)piperidin-1-yl]methyl}phenyl)imidazo[2,1-b][1,3,4]thiadiazole], the IC50 was below 10 µM. With `N#Cc1cccn2c(-c3ccccc3)c(-c3ccc(CN4CCC(c5nnc(-c6ccco6)[nH]5)CC4)cc3)nc12` [Example 90, ′2-[4-({4-[5-(2-furyl)-4H-1,2,4-triazol-3-yl]piperidin-1-yl}methyl)phenyl]-3-phenylimidazo[1,2-a]pyridine-8-carbonitrile], the IC50 is above 10 µM. The same measure, in the same setting: the result for `c1ccc(-c2c(-c3ccc(CN4CCC(c5nnc(-c6nccs6)[nH]5)CC4)cc3)nc3ccccn23)cc1` [Example 85, ′3-phenyl-2-[4-({4-[5-(1,3-thiazol-2-yl)-4H-1,2,4-triazol-3-yl]piperidin-1-yl}methyl)phenyl]imidazo[1,2-a]pyridine] reads above 10 µM; that for `c1ccc(-c2c(-c3ccc(CN4CCC(c5nnc(-c6ncccn6)[nH]5)CC4)cc3)nc3ccccn23)cc1` [Example 80, ′3-phenyl-2-(4-{[4-(5-pyrimidin-2-yl-4H-1,2,4-triazol-3-yl)piperidin-1-yl]methyl}phenyl)imidazo[1,2-a]pyridine], above 10 µM.

On to `N#Cc1ccn2c(-c3ccccc3)c(-c3ccc(CN4CCC(c5nnc(-c6ccco6)[nH]5)CC4)cc3)nc2c1` [Example 96, ′2-[4-({4-[5-(2-furyl)-4H-1,2,4-triazol-3-yl]piperidin-1-yl}methyl)phenyl]-3-phenylimidazo[1,2-a]pyridine-7-carbonitrile], for which the IC50 was below 10 µM.

Consider `c1ccc(-c2c(-c3ccc(CN4CCC(c5nnc(-c6ccco6)[nH]5)CC4)cc3)nc3scnn23)cc1` [Example 94, ′6-[4-({4-[5-(2-furyl)-4H-1,2,4-triazol-3-yl]piperidin-1-yl}methyl)phenyl]-5-phenylimidazo[2,1-b][1,3,4]thiadiazole], for which the IC50 was below 10 µM. `c1ccc(-c2c(-c3ccc(CN4CCC(c5nnc(-c6ncccn6)[nH]5)CC4)cc3)nc3scnn23)cc1` [Example 82, ′5-phenyl-6-(4-{[4-(5-pyrimidin-2-yl-4H-1,2,4-triazol-3-yl)piperidin-1-yl]methyl}phenyl)imidazo[2,1-b][1,3,4]thiadiazole]: the IC50 is below 10 µM. The same measure, in the same setting: the result for `c1ccc(-c2c(-c3ccc(CN4CCC(c5cc(-c6ccccn6)[nH]n5)CC4)cc3)nc3sccn23)cc1` [Example 113, ′5-phenyl-6-(4-{[4-(5-pyridin-2-yl-1H-pyrazol-3-yl)piperidin-1-yl]methyl}phenyl)imidazo[2,1-b][1,3]thiazole] reads below 10 µM.

The values are drawn from patent US9387204B2, “Fused bicyclic imidazoles” (BAYER INTELLECTUAL PROPERTY GmbH, priority 2007, dated 2016).
